Experimental data as given in BindingDB's records for patent US9018371 (Fm Therapeutics, 2015).

Target: T1, Adenosine receptor A3 (Homo sapiens, UniProt P0DMS8)
T1 sequence (P0DMS8 whole entry): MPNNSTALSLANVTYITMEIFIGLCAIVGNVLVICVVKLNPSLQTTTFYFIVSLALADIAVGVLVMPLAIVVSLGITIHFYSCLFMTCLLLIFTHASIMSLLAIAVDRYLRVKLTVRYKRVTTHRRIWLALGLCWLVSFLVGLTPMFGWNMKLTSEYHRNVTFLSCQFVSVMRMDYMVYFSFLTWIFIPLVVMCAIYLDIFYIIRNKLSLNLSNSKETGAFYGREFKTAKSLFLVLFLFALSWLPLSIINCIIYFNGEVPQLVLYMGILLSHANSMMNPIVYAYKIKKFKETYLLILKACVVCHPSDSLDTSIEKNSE
Experiment: Binding Assay

Ki: 19.9 nM
Structure (SMILES): COc1ccccc1CNc1nc(Cl)nc2c1ncn2[C@@H]1SCC(O)[C@@H]1O (stereo partly specified) [US9018371, 7]
